Measurements from US4013657A, “O-ethyl-S-n-propyl-O-[pyridaz-(6)-on-(3)-yl]-thionothiolphosphoric acid esters” (priority 1973, dated 1977).
Read-outs that look alike come from different tables or passages of the source.

Legend:
[1] = Toxicity test, albino rat/peroral; conditions: in vivo, po; albino rat; peroral; evaluation after 7 days
Experimental: Test animal: Albino rat (Rattus norvegicus)
To produce a suitable preparation of active compound, 3 parts by weight of active compound were mixed with 2.8 parts by weight of highly disperse silica and 4.2 parts by weight of talc. Suspensions, which contained, in 1 ml of liquid, the amount of active compound to be adminstered per 100 g of animal weight, were prepared from the above active-compound concentrate, with addition of a little powdered vegetable gum, by trituration with water. The dosage was measured out volumetrically after weighing the test animals. It was administered orally by means of a steel knob-ended probe. The results were in each case evaluated at the end of the above-mentioned interval of time, calculated from the administration of the active compound.
The LD50 values (dose of active compound which kills 50% of the treated animals) was determined from the mortality values of the dose which were varied in geometrical progression, in the usual manner.
The active compounds and LD50 values can be seen from Table 5 which follows.

[2] = test system: vinegar flies (Drosophila melanogaster); experiment: Drosophila test; type: in vivo; conditions: 24 h, read-out: Degree of destruction in % after 1 day; for mortality at 0.01 %: active compound concentration 0.01 %
Experimental: (§1) Solvent: 3 parts by weight of acetone
(§2) Emulsifier: 1 part by weight of alkylaryl polyglycol ether
To produce a suitable preparation of active compound, 1 part by weight of the active compound was mixed with the stated amount of solvent containing the stated amount of emulsifier, and the concentrate was diluted with water to the desired concentration.
1 ml of the preparation of the active compound was applied with a pipette to a filter paper disc of 7 cm diameter. The wet disc was placed over the orifice of a glass vessel containing 50 vinegar flies (Drosophila melanogaster) and covered with a glass plate.
After the specified periods of time, the destruction was determined in %. 100% means that all the flies were killed, and 0% means that no flies were killed.
The active compounds, the concentrations of the active compounds, the evaluation times and the degree of destruction can be seen from the following Table 1: […]

warm-blooded animals = conditions: prior-art compounds; cited from earlier work
[3] = test system: two-spotted spider mite (Tetranychus urticae); experiment: Tetranychus test (resistant); type: in vivo; conditions: 48 h, after 2 days, resistant mites, read-out: Degree of destruction in % after 2 days; for mortality at 0.1 %: active compound concentration 0.1 %; for mortality at 0.01 %: active compound concentration 0.01 %
Experimental: Tetranychus test (resistant)
as §1, §2
(§3) To produce a suitable preparation of active compound, 1 part by weight of the active compound was mixed with the stated amount of solvent containing the stated amount of emulsifier and the concentrate was diluted with water to the desired concentration.
These bean plants were heavily infested with the two-spotted spider mite (Tetranychus urticae) in all stages of development.
After the specified periods of time, the effectiveness of the preparation of active compound was determined by counting the dead mites. The degree of destruction thus obtained was expressed as a percentage: 100% means that all the spider mites were killed whereas 0% means that none of the spider mites were killed.
The active compounds, the concentrations of the active compounds, the evaluation times and the results can be seen from the following Table 3: […]

insects and acarids = conditions: prior-art compounds; cited from earlier work
[4] = test system: caterpillars of the diamond-back moth (Plutella maculipennis); experiment: Plutella test; type: in vivo; conditions: 72 h, read-out: Degree of destruction in % after 3 days; for mortality at 0.001 %: active compound concentration 0.001 %; for mortality at 0.01 %: active compound concentration 0.01 %
Experimental: as §1, §2, §3
Cabbage leaves (Brassica oleracea) were sprayed with the preparation of the active compound until dew moist and were then infested with caterpillars of the diamond-back moth (Plutella maculipennis).
After the specified periods of time, the degree of destruction was determined as a percentage: 100% means that all the caterpillars were killed, whereas 0% means that none of the caterpillars were killed.
The active compounds, the concentrations of the active compounds, the evaluation times and the results can be seen from the following Table 2.

[5] = test system: fly larvae (Lucilia cuprina); experiment: Test with parasitic fly larvae/Lucilia cuprina res.; type: in vivo; conditions: after 24 hours, resistant larvae, read-out: Degree of destruction in %; for mortality at 10 ppm: active compound concentration 10 ppm; for mortality at 30 ppm: active compound concentration 30 ppm; for mortality at 100 ppm: active compound concentration 100 ppm
Experimental: Test with parasitic fly larvae
35 parts by weight of ethylene polyglycol monomethyl ether
35 parts by weight of nonylphenol polyglycol ether
To produce a suitable preparation of active compound, 30 parts by weight of the active substance in question were mixed with the stated amount of solvent which contained the above-mentioned proportion of emulsifier and the concentrate thus obtained was diluted with water to the desired concentration.
About 20 fly larvae (Lucilia cuprina) were introduced into a test tube which contained approximately 2 ml of horse muscle. 0.5 ml of the preparation of active compound was applied to this horse meat. After 24 hours, the degree of destruction in % was determined. 100% means that all the larvae had been killed and 0% means that no larvae had been killed.

[6] = active compound concentration 0.1 %, after 3 days
[7] = active compound concentration 0.1 %, after 1 day

## CCCSP(=S)(OCC)Oc1ccc(=O)n(CCC(C)=O)n1 (stereo not drawn) [Compound 10]
[1]
  LD50 at 168 h: 250 to 500 mg/kg

## CCOP(=S)(OCC)Oc1n[nH]c(=O)c2ccccc12 [known, reference compound]
[2]; after 1 day
  mortality at 0.01 %: 0%
[2]
  mortality at 0.1 %: 100%

## CCOP(=S)(OCC)Oc1n[nH]c(=O)c2ccccc12 [Compound A, O,O-diethyl-O-[phthalaz-(8)-on-(3)-yl]-thionophosphoric acid ester]
warm-blooded animals
  toxicity to warm-blooded animals: high toxicity to warm-blooded animals
[1]
  LD50 at 168 h: ~25 mg/kg
[3]
  mortality at 0.1 %: 0%
Insects and acarids
  insecticidal and acaricidal properties: good insecticidal and acaricidal properties
[4]; [6]
  mortality at 0.1 %: 0%

## CCCSP(=S)(OCC)Oc1ccc(=O)n(CCC#N)n1 (stereo not drawn) [Compound 2, O-ethyl-S-n-propyl-O-[1-β-cyanoethyl-pyridaz-(6)-on-(3)-yl]-thionothiolphosphoric acid ester]
[1]
  LD50 at 168 h: 250 to 500 mg/kg
[5]
  mortality at 10 ppm: 100%
  mortality at 30 ppm: 100%
  mortality at 100 ppm: 100%

## CCCSP(=S)(OCC)Oc1ccc(=O)n(-c2cccc(Cl)c2)n1 (stereo not drawn) [Compound 17]
[1]
  LD50 at 168 h: > 1000 mg/kg

## C=CCn1nc(OP(=S)(OCC)SCCC)ccc1=O (stereo not drawn) [Compound 6]
[1]
  LD50 at 168 h: ~500 mg/kg
[3]
  mortality at 0.01 %: 55%
  mortality at 0.1 %: 100%
[2]; after 1 day
  mortality at 0.01 %: 100%
[2]; [7]
  mortality at 0.1 %: 100%

## CCCSP(=S)(OCC)Oc1ccc(=O)[nH]n1 (stereo not drawn) [Compound 1, O-ethyl-S-n-propyl-O-[pyridaz-(6)-on-(3)-yl]-thionothiolphosphoric acid ester]
[1]
  LD50 at 168 h: 100 to 250 mg/kg

## CCCSP(=S)(OCC)Oc1ccc(=O)n(CC(=O)OCC)n1 (stereo not drawn) [Compound 9]
[1]
  LD50 at 168 h: ~500 mg/kg

## C#CCn1nc(OP(=S)(OCC)SCCC)ccc1=O (stereo not drawn) [Compound 7]
[1]
  LD50 at 168 h: ~250 mg/kg
[3]
  mortality at 0.01 %: 45%
  mortality at 0.1 %: 100%
[2]; after 1 day
  mortality at 0.01 %: 100%
[2]; [7]
  mortality at 0.1 %: 100%

## CCCSP(=S)(OCC)Oc1ccc(=O)n(CCC(=O)OC)n1 (stereo not drawn) [Compound 11]
[1]
  LD50 at 168 h: ~250 mg/kg

## CCCSP(=S)(OCC)Oc1ccc(=O)n(C2CCS(=O)(=O)C2)n1 (stereo not drawn) [Compound 18]
[1]
  LD50 at 168 h: ~500 mg/kg

## CCOP(=S)(OCC)Oc1ccc(=O)n(-c2ccc(C)cc2)n1 [Compound F, O,O-diethyl-[1-p-methylphenyl-pyridaz-(6)-on-(3)-yl]-thionophosphoric acid ester, reference compound]
warm-blooded animals
  toxicity to warm-blooded animals: high toxicity to warm-blooded animals
[1]
  LD50 at 168 h: 50 to 100 mg/kg
[3]
  mortality at 0.01 %: 0%
  mortality at 0.1 %: 40%
Insects and acarids
  insecticidal and acaricidal properties: good insecticidal and acaricidal properties

## CCOP(=S)(OCC)Oc1ccc(=O)n(CCC#N)n1 [Compound D, O,O-diethyl-O-[1-β-cyanoethyl-pyridaz-(6)-on-(3)-yl]-thionophosphoric acid ester]
warm-blooded animals
  toxicity to warm-blooded animals: high toxicity to warm-blooded animals
[1]
  LD50 at 168 h: 10 to 25 mg/kg
Insects and acarids
  insecticidal and acaricidal properties: good insecticidal and acaricidal properties

## CCOC(=O)Cn1nc(OP(=S)(OCC)OCC)ccc1=O [Compound E, O,O-diethyl-O-[1-ethoxycarbonylmethyl-pyridaz-(6)-on-(3)-yl]-thionophosphoric acid ester, reference compound]
warm-blooded animals
  toxicity to warm-blooded animals: high toxicity to warm-blooded animals
[5]
  mortality at 10 ppm: > 50%
  mortality at 100 ppm: 100%
Insects and acarids
  insecticidal and acaricidal properties: good insecticidal and acaricidal properties

## CCCSP(=S)(OCC)Oc1ccc(=O)n(-c2ccccc2)n1 (stereo not drawn) [Compound 13]
[1]
  LD50 at 168 h: 250 to 500 mg/kg
[3]
  mortality at 0.01 %: 100%
  mortality at 0.1 %: 100%
[2]; after 1 day
  mortality at 0.01 %: 100%
[2]; [7]
  mortality at 0.1 %: 100%
[4]; after 3 days
  mortality at 0.001 %: 95%
  mortality at 0.01 %: 100%
[4]; [6]
  mortality at 0.1 %: 100%

## CCCSP(=S)(OCC)Oc1nn(CN2CCCCC2)c(=O)c2ccccc12 (stereo not drawn) [Compound 20]
[1]
  LD50 at 168 h: 250 to 500 mg/kg
[3]
  mortality at 0.01 %: 80%
  mortality at 0.1 %: 100%

## CCCSP(=S)(OCC)Oc1ccc(=O)n(-c2ccc(Cl)cc2)n1 (stereo not drawn) [Compound 16]
[1]
  LD50 at 168 h: > 1000 mg/kg

## CCOP(=S)(OCC)Oc1ccc(=O)[nH]n1 [Compound B, O,O-diethyl-O-[pyridaz-(6)-on-(3)-yl]-thionophosphoric acid ester]
warm-blooded animals
  toxicity to warm-blooded animals: high toxicity to warm-blooded animals
[1]
  LD50 at 168 h: 2.5 to 5 mg/kg
[5]
  mortality at 30 ppm: < 50%
[5]; active compound concentration 300 ppm
  mortality at 300 ppm: 100%
[3]
  mortality at 0.1 %: 20%
Insects and acarids
  insecticidal and acaricidal properties: good insecticidal and acaricidal properties
[4]; after 3 days
  mortality at 0.001 %: 0%
  mortality at 0.01 %: 80%
[4]; [6]
  mortality at 0.1 %: 100%

## CCCSP(=S)(OCC)Oc1ccc(=O)n(-c2ccc(C)cc2)n1 (stereo not drawn) [Compound 15]
[1]
  LD50 at 168 h: ~500 mg/kg
[5]; active compound concentration 3 ppm
  mortality at 3 ppm: > 50%
[5]
  mortality at 10 ppm: 100%
  mortality at 30 ppm: 100%
  mortality at 100 ppm: 100%

## CCOP(=S)(OCC)Oc1ccc(=O)n(CCC(C)=O)n1 [G]
[1]
  LD50 at 168 h: 10 to 25 mg/kg
[4]; after 3 days
  mortality at 0.001 %: 0%
  mortality at 0.01 %: 80%
[4]
  mortality at 0.1 %: 100%

## CCOP(=S)(OCC)Oc1ccc(=O)n(C)n1 [Compound C, O,O-diethyl-O-[1-methyl-pyridaz-(6)-on-(3)-yl]-thionophosphoric acid ester]
warm-blooded animals
  toxicity to warm-blooded animals: high toxicity to warm-blooded animals
[1]
  LD50 at 168 h: 5 to 10 mg/kg
Insects and acarids
  insecticidal and acaricidal properties: good insecticidal and acaricidal properties

## CCCSP(=S)(OCC)Oc1nn(CN2CCCC2)c(=O)c2ccccc12 (stereo not drawn) [Compound 19]
[1]
  LD50 at 168 h: 100 to 250 mg/kg
[2]; after 1 day
  mortality at 0.01 %: 100%
[2]; [7]
  mortality at 0.1 %: 100%

## CCCSP(=S)(OCC)Oc1ccc(=O)n(C)n1 (stereo not drawn) [Compound 3]
[1]
  LD50 at 168 h: 100 to 250 mg/kg
[5]
  mortality at 10 ppm: 100%
  mortality at 30 ppm: 100%
  mortality at 100 ppm: 100%
[3]
  mortality at 0.01 %: 70%
  mortality at 0.1 %: 100%
[2]; after 1 day
  mortality at 0.01 %: 100%
[2]; [7]
  mortality at 0.1 %: 100%

## CCCSP(=S)(OCC)Oc1n[nH]c(=O)c2ccccc12 (stereo not drawn) [Compound 21]
[1]
  LD50 at 168 h: ~500 mg/kg

## CCCSP(=S)(OCC)Oc1ccc(=O)n(CCSCC)n1 (stereo not drawn) [Compound 8]
[1]
  LD50 at 168 h: 250 to 500 mg/kg
[3]
  mortality at 0.01 %: 80%
  mortality at 0.1 %: 100%
[2]; after 1 day
  mortality at 0.01 %: 100%
[2]; [7]
  mortality at 0.1 %: 100%

## CCCSP(=S)(OCC)Oc1ccc(=O)n(-c2cccc([N+](=O)[O-])c2)n1 (stereo not drawn) [Compound 14]
[1]
  LD50 at 168 h: > 1000 mg/kg
[4]; after 3 days
  mortality at 0.001 %: 95%
  mortality at 0.01 %: 100%
[4]; [6]
  mortality at 0.1 %: 100%
